Test results published in the supplement of paper PMC4862054.

How the values were obtained:
Settings in all cases: incubation time: 72 h
MDA-MB-436 = assay: drug sensitivity score (DSS), CellTiter-Glo (DSS (AUC-based score)); higher = stronger drug effect (viability inhibition or cytotoxicity); extreme values may be limits of the assay
Summary of the method: (§1)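 A drug sensitivity score was derived from the area under each fitted dose-response curve. Breast cancer cells (20 µl suspension) were seeded onto compound in 384-well plates, using 5 concentrations 10-fold apart over a compound-specific 10,000-fold range, and incubated 72 h. Readouts were CellTox Green fluorescence and then CellTiter-Glo luminescence, with every plate normalised to 0.1 % DMSO and a positive kill control.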

DU-4475 = assay: as above
Summary of the method: as §1

CAL-85-1 [1] = assay: as above
Summary of the method: as §1

CAL-51 [2] = assay: as above
Summary of the method: as §1

CAL-148 = assay: as above
Summary of the method: as §1

Hs578T = assay: as above
Summary of the method: as §1

MCF-10A = assay: as above
Summary of the method: as §1

HCC1143 = assay: as above
Summary of the method: as §1

HCC1599 = assay: as above
Summary of the method: as §1

MFM-223 = assay: as above
Summary of the method: as §1

BT-549 = assay: as above
Summary of the method: as §1

MDA-MB-468 [3] = assay: as above
Summary of the method: as §1

BT-474 [4] = assay: as above
Summary of the method: as §1

CAL-120 = assay: as above
Summary of the method: as §1

MDA-MB-231 = assay: as above
Summary of the method: as §1

SK-BR-3 = assay: as above
Summary of the method: as §1

HCC1937 = assay: as above
Summary of the method: as §1

MDA-MB-453 = assay: as above
Summary of the method: as §1

HDQ-P1 = assay: as above
Summary of the method: as §1

CAL-85-1 [5] = assay: drug sensitivity score (DSS), CellTox Green (DSS (AUC-based score)); higher = stronger drug effect (viability inhibition or cytotoxicity); extreme values may be limits of the assay
Summary of the method: as §1

CAL-51 [6] = assay: as above
Summary of the method: as §1

MDA-MB-468 [7] = assay: as above
Summary of the method: as §1

BT-474 [8] = assay: as above
Summary of the method: as §1

Measured: drug sensitivity score

CCc1c(C(=O)C(N)=O)c2c(OCC(=O)O)cccc2n1Cc1ccccc1 [Varespladib]
0: all assays above
